Data from patent US6465660B1, “Isoindoloindolone compounds” (Les Laboratoires Servier, priority 2001, dated 2002).

Biological target: T1, MT3 sites (Mesocricetus auratus, UniProt A0ABM2YAB8)
T1 construct: carried out on hamster brain membranes using 2-[^125I] iodomelatonin as radioligand; from tissue; host or cells: hamster brain membranes
T1 sequence (A0ABM2YAB8 1-231): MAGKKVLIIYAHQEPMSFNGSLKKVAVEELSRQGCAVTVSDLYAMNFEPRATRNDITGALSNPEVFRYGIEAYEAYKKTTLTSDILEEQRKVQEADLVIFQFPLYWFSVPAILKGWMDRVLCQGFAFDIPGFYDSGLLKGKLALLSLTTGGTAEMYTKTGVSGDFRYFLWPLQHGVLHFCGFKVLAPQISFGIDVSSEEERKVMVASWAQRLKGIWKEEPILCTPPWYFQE
Assay: Study of binding to melatonin MT3 binding sites
Conditions: hamster brain membranes, 2-[125I] iodomelatonin radioligand, 30 minutes, 4° C.
Experimental: Binding to MT3 sites is characterised by remarkably rapid association and dissociation kinetics and by tissue localisation (brain).
The experiments of binding to MT3 sites are carried out on hamster brain membranes using 2-[^125I] iodomelatonin as radioligand in accordance with the protocol described by P. Paul et al. (J. Pharmacol. Exp. Ther. 1999 290, 334). The membranes are incubated for 30 minutes with 2-[^125I] iodomelatonin at a temperature of 4° C. and at different concentrations of the compounds to be tested. Following incubation, the membranes are rapidly filtered and then washed with cold buffer using a filtration system. The radioactivity retained is measured using a scintillation counter.

- IC50: 0.045 µM
Compound: COc1ccc2[nH]cc(CCNC(C)=O)c2c1 [melatonin, N-acetyl-5-methoxytryptamine]
